Assay results published in patent US20250215039A1, “NUCLEOSIDES FOR TREATING CANCER” (PRIMEFOUR THERAPEUTICS, INC., priority 2022, published 2025).
Read-outs that look alike come from different tables or passages of the source.

System: cancer cell lines
Experiment: Cancer cell proliferation activity (CellTiterGlo, 72 h)
Assay type: cell-based
Conditions: 72 h, 72 h, read-out: IC50
Method in brief: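 Cells seeded overnight at 37 °C, then dosed with compound at 0.1% final DMSO and incubated 72 h at 37 °C (5% or 10% CO2 by medium).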

## COC[C@]1(CO)O[C@@H](n2cnc3c(N)nc(F)nc32)C[C@@H]1O [Cpd. No. 140, (2S,3S,5R)-5-(6-amino-2-fluoro-9H-purin-9-yl)-2-(hydroxymethyl)-2-(methoxymethyl)tetrahydrofuran-3-ol]
5637 cell line (bladder)
  IC50: 660 nM
AS49 cell line (lung)
  IC50: 4060 nM
CLS439 cell line (bladder)
  IC50: 9830 nM
HS729 cell line (muscle)
  IC50: 860 nM
JAR cell line (placenta)
  IC50: 330 nM
Homo sapiens, 22Rv1, 72 h, 22RV1 cell line (prostate)
  IC50: 1240 nM
Homo sapiens, 786-0, 72 h, 786O cell line (kidney)
  IC50: 400 nM
Homo sapiens, A204, 72 h, A204 cell line (muscle)
  IC50: 270 nM
Homo sapiens, A673, 72 h, A673 cell line (bone)
  IC50: 1950 nM
Homo sapiens, A2780, 72 h, A2780 cell line (ovary)
  IC50: 770 nM
Homo sapiens, A-375, 72 h, A375 cell line (skin)
  IC50: 210 nM
Homo sapiens, A-431, 72 h, A431 cell line (skin)
  IC50: 290 nM
Homo sapiens, ACHN, ACHN cell line (kidney)
  IC50: 2850 nM
Homo sapiens, ASPC1, 72 h, ASPC1 cell line (pancreas)
  IC50: 230 nM
Homo sapiens, BT-20, 72 h, BT20 cell line (breast)
  IC50: 390 nM
Homo sapiens, BXPC-3, 72 h, BXPC3 cell line (pancreas)
  IC50: 3380 nM
Homo sapiens, C-33-A, C33A cell line (cervical)
  IC50: 650 nM
Homo sapiens, CAKI-1, 72 h, CAKI1 cell line (kidney)
  IC50: 30 nM
Homo sapiens, COLO 205, 72 h, COLO205 cell line (colon)
  IC50: 810 nM
Homo sapiens, COLO-678, 72 h, COLO678 cell line (colon)
  IC50: 4150 nM
Homo sapiens, Ca-Ski, CASKI cell line (cervical)
  IC50: 200 nM
Homo sapiens, Caco-2, 72 h, CACO2 cell line (colon)
  IC50: 660 nM
Homo sapiens, Calu-6, 72 h, CALU6 cell line (lung)
  IC50: 300 nM
Homo sapiens, DLD-1, 72 h, DLD1 cell line (colon)
  IC50: 2490 nM
Homo sapiens, DU-145, 72 h, DU145 cell line (prostate)
  IC50: 160 nM
Homo sapiens, EFO-21, 72 h, EFO21 cell line (ovary)
  IC50: 540 nM
Homo sapiens, EJ-28, 72 h, EJ28 cell line (bladder)
  IC50: 440 nM
Homo sapiens, Granta-519, 72 h, GRANTA-519 cell line (hematological)
  IC50: 3460 nM
Homo sapiens, HCT-15, 72 h, HCT15 cell line (colon)
  IC50: 2070 nM
Homo sapiens, HCT-116, 72 h, HCT116 cell line (colon)
  IC50: 620 nM
Homo sapiens, HEK293, 72 h, HEK293 cell line (kidney)
  IC50: 460 nM
Homo sapiens, HL-60, 72 h, HL-60 cell line (hematological)
  IC50: 670 nM
Homo sapiens, HT-29, 72 h, HT29 cell line (colon)
  IC50: 300 nM
Homo sapiens, HT-1080, 72 h, HT1080 cell line (connective tissue)
  IC50: > 50000 nM
Homo sapiens, HeLa, HELA cell line (cervical)
  IC50: 490 nM
Homo sapiens, HepG2, 72 h, HEPG2 cell line (liver)
  IC50: 450 nM
Homo sapiens, Hs-578T, HS578T cell line, breast
  IC50: 470 nM
Homo sapiens, IGROV-1, 72 h, IGROV1 cell line (ovary)
  IC50: 340 nM
Homo sapiens, IMR-90, 72 h, IMR90 cell line, lung
  IC50: 450 nM
Homo sapiens, J82, 72 h, J82 cell line (bladder)
  IC50: 380 nM
Homo sapiens, JEG-3, 72 h, JEG3 cell line (placenta)
  IC50: 380 nM
Homo sapiens, JIMT-1, 72 h, JIMT1 cell line (breast)
  IC50: 90 nM
Homo sapiens, K562, 72 h, K-562 cell line (hematological)
  IC50: 3950 nM
Homo sapiens, Kasumi 1, 72 h, KASUMI-1 cell line (hematological)
  IC50: 80 nM
Homo sapiens, L-363, 72 h, L-363 cell line (hematological)
  IC50: 420 nM
Homo sapiens, LoVo, LOVO cell line (colon)
  IC50: 190 nM
Homo sapiens, MCF7, 72 h, MCF7 cell line (breast)
  IC50: > 50000 nM
Homo sapiens, MDA-MB-231, 72 h, MDAMB231 cell line (breast)
  IC50: 7320 nM
Homo sapiens, MDA-MB-435, 72 h, MDAMB435 cell line (skin)
  IC50: 1690 nM
Homo sapiens, MDA-MB-436, 72 h, MDAMB436 cell line (breast)
  IC50: 250 nM
Homo sapiens, MDA-MB-468, 72 h, MDAMB468 cell line (breast)
  IC50: 240 nM
Homo sapiens, MG-63, 72 h, MG63 cell line (bone)
  IC50: > 50000 nM
Homo sapiens, MHH-ES-1, 72 h, MHHES1 cell line (bone)
  IC50: 500 nM
Homo sapiens, MIA PaCa-2, 72 h, MIAPACA2 cell line (pancreas)
  IC50: > 50000 nM
Homo sapiens, MINO, MINO cell line (hematological)
  IC50: 180 nM
Homo sapiens, MV4-11, 72 h, MV4-11 cell line (hematological)
  IC50: 160 nM
Homo sapiens, NCI-H23, 72 h, NCI-H23 cell line (lung)
  IC50: 640 nM
Homo sapiens, NCI-H82, 72 h, NCIH82 cell line (lung)
  IC50: 490 nM
Homo sapiens, NCI-H292, 72 h, NCIH292 cell line (lung)
  IC50: 2970 nM
Homo sapiens, NCI-H460, 72 h, NCIH460 cell line (lung)
  IC50: 600 nM
Homo sapiens, OVCAR-3, 72 h, OVCAR3 cell line (ovary)
  IC50: 180 nM
Homo sapiens, OVCAR-4, 72 h, OVCAR4 cell line (ovary)
  IC50: 600 nM
Homo sapiens, PANC-1, 72 h, PANC1 cell line (pancreas)
  IC50: > 50000 nM
Homo sapiens, PC-3, 72 h, PC3 cell line (prostate)
  IC50: 660 nM
Homo sapiens, PLC-PRF-5, 72 h, PLCPRF5 cell line (liver)
  IC50: 4950 nM
Homo sapiens, Panc1005, 72 h, PANC1005 cell line (pancreas)
  IC50: 370 nM
Homo sapiens, RD, RD cell line (muscle)
  IC50: 870 nM
Homo sapiens, Ramos, RAMOS cell line (hematological)
  IC50: 600 nM
Homo sapiens, SAOS-2, 72 h, SAOS2 cell line (bone)
  IC50: 360 nM
Homo sapiens, SF-268, 72 h, SF268 cell line (brain)
  IC50: > 50000 nM
Homo sapiens, SF-295, 72 h, SF295 cell line (brain)
  IC50: 1730 nM
Homo sapiens, SK-BR-3, 72 h, SKBR3 cell line (breast)
  IC50: 70 nM
Homo sapiens, SK-HEP1, 72 h, SKHEP1 cell line (liver)
  IC50: 3410 nM
Homo sapiens, SK-LMS-1, 72 h, SKLMS1 cell line (uterus)
  IC50: 340 nM
Homo sapiens, SK-MEL-5, 72 h, SKMEL5 cell line, skin
  IC50: 4010 nM
Homo sapiens, SK-MEL-28, 72 h, SKMEL28 cell line (skin)
  IC50: 670 nM
Homo sapiens, SK-N-AS, SKNAS cell line (brain)
  IC50: 630 nM
Homo sapiens, SK-N-SH, SKNSH cell line (brain)
  IC50: 320 nM
Homo sapiens, SK-OV-3, 72 h, SKOV3 cell line (ovary)
  IC50: 620 nM
Homo sapiens, SNB-75, 72 h, SNB75 cell line (brain)
  IC50: 1510 nM
Homo sapiens, SU-DHL10, 72 h, SU-DHL-10 cell line (hematological)
  IC50: 530 nM
Homo sapiens, SU-DHL-6, 72 h, SU-DHL-6 cell line (hematological)
  IC50: 360 nM
Homo sapiens, SW-620, 72 h, SW620 cell line (colon)
  IC50: 540 nM
Homo sapiens, T-24, 72 h, T24 cell line (bladder)
  IC50: 710 nM
Homo sapiens, TE-671, 72 h, TE671 cell line (muscle)
  IC50: 1920 nM
Homo sapiens, THP-1, 72 h, THP-1 cell line (hematological)
  IC50: > 50000 nM
Homo sapiens, U2OS, U2OS cell line (bone)
  IC50: 610 nM
Homo sapiens, U-87 MG, U87MG cell line (brain)
  IC50: 3660 nM
Homo sapiens, UMUC3, 72 h, UMUC3 cell line (bladder)
  IC50: 3400 nM
Homo sapiens, UO-31, 72 h, UO31 cell line (kidney)
  IC50: 280 nM
Homo sapiens, WSU-NHL, WSU-NHL cell line (hematological)
  IC50: 430 nM
MT-3, 72 h, MT3 cell line (breast)
  IC50: 360 nM
NCI-H358M, NCIH358M cell line (lung)
  IC50: 430 nM
PBMC, PBMC (hematological)
  IC50: > 50000 nM
RD-ES, RDES cell line (bone)
  IC50: 270 nM
